The values that follow come from patent US10494363B2, “Non-steroidal glucocorticoid receptor modulators for local drug delivery” (LEO PHARMA A/S, priority 2015, dated 2019).

A value given as a limit tells only on which side of the number the result lay.

Series [1] concerns the target T1, glucocorticoid receptor (GR), recombinant full-length receptor protein (Homo sapiens, UniProt P04150).
T1 construct: 4 nM recombinant, full-length receptor protein was incubated with increasing concentrations of GR ligand; purchased Life Technologies A-15897
T1 sequence (P04150 1-777): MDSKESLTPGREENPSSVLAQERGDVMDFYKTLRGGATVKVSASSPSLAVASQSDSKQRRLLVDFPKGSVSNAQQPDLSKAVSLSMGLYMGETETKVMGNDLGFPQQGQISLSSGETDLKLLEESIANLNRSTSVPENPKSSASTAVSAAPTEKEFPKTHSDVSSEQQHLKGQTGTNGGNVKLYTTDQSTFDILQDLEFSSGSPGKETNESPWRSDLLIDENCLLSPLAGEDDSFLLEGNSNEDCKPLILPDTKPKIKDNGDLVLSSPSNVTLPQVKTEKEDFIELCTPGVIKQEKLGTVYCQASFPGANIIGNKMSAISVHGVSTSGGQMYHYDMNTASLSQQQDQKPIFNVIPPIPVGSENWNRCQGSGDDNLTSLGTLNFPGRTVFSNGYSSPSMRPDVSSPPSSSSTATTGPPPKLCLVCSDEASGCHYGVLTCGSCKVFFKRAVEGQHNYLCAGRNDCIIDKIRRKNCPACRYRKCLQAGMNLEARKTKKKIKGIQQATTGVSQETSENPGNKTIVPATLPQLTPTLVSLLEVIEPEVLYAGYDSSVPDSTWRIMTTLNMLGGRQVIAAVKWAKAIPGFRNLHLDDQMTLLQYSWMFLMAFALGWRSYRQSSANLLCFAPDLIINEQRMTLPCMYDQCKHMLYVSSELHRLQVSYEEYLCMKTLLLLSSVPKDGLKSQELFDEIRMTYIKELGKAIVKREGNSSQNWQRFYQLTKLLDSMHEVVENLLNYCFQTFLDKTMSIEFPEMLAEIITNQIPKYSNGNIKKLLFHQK
The series is described as follows: Glucocorticoid receptor binding assay (fluorescence polarization kit). The settings on record: 4 nM receptor, 2.5 nM Fluormone GS1 tracer, 2h room temperature, read-out: GR binding ABS IC50. The method, then: Test compounds were diluted in DMSO over seven orders of magnitude, further diluted in assay buffer and distributed into 384-well plates. The sensitivity limit of this assay was 2-4 nM.
Data were processed by sigmoidal curve fitting.
Absolute (Abs) IC50 and Emax were determined from the curve fits.
On the technique in general: Fluorescence polarisation rises when a labelled molecule tumbles more slowly, as on binding a larger partner.

In series [2] the test system is TNF alpha release from human PBMCs. The series is described as follows: Inhibition of TNF alpha release from human PBMCs. Type of series: cell-based. The note with it: PBMC, LPS 1 μg/ml, 18 hours, AlphaLISA. A digest of the protocol: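 Fresh or thawed PBMCs in serum-free medium with 0.5% HSA, stimulated with 1 μg/ml LPS plus titrated compound for 18 h at 37° C. TNF-a in supernatant by AlphaLISA; window set with a reference PDE4 inhibitor at 100×IC50. EC50 and Emax from sigmoidal fits.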
For orientation: Alpha assays give light when donor and acceptor beads are brought close together.

Series [3] can be described thus: Human liver microsomes (HLM) assay. The series is classed as in vitro ADME. The settings on record: hepatic extraction ratio; 0.5 μM compound, 0.5 mg/mL microsomes, NADPH, 37° C. A digest of the protocol: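 Compound at 0.5 μM incubated at 37° C. with human liver microsomes (0.5 mg/mL) and NADPH (1 mM) in phosphate buffer pH 7.4, 1% organic solvent; sampled 0-30 minutes. Clapp (mL/min/kg) and Eh (%) derived from depletion rate constant.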
(In general: Microsomes from liver hold many membrane-bound enzymes, among them those of drug oxidation.)

With `C[C@H](NC(=O)C1(O)CCC1)[C@H](Oc1ccc(C(=O)N[C@H]2CCCN(C(=O)[C@H]3COC(=O)C3)C2)nc1)c1ccc(C2CC2)cc1` [Compound 17, 5-[(1R,2S)-1-(4-cyclopropylphenyl)-2-[(1-hydroxycyclobutanecarbonyl)amino]propoxy]-N-[(3S)-1-[(3R)-5-oxotetrahydrofuran-3-carbonyl]-3-piperidyl]pyridine-2-carboxamide], the IC50 in series [1] is 100 to 300 nM. The EC50 in series [2] is less than 100 nM. Besides, in series [3], the “HLM assay Eh (%)” value was “* (extraction ratio (Eh)>90%)”.

On to `C[C@H](NC(=O)c1ccon1)[C@H](Oc1ccc(C(=O)O[C@H]2CCCN(C(=O)[C@H]3COC(=O)C3)C2)cc1)c1ccc(C2CC2)cc1` [Compound 51, [(3S)-1-[(3R)-5-oxotetrahydrofuran-3-carbonyl]-3-piperidyl] 4-[(1R,2S)-1-(4-cyclopropylphenyl)-2-(isoxazole-3-carbonylamino)propoxy]benzoate], for which the half-maximal inhibitory concentration (IC50) in series [1] was less than 100 nM. Also, the EC50 in series [2] was less than 100 nM. In addition, the “HLM assay Eh (%)” value in series [3] is “* (extraction ratio (Eh)>90%)”.

By IC50 is commonly meant the concentration that inhibits the measured activity by half. Usually EC50 stands for the concentration at which the effect is half-maximal. Read a high EC50 as a need for much substance.
